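96-well plates; 48 h exposure; 5 concentrations. Endpoints by linear interpolation between flanking doses. Not reached: highest tested concentration assigned. Here, GI50 denotes the concentration required for 50% inhibition of growth. At the TGI there is no net growth.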
Legend:
Test in all cases: growth of human tumour cells (NCI), 48 h
786-0 renal = test system: 786-0 renal
A498 renal = test system: A498 renal
A549 NSCLC = test system: A549 NSCLC
ACHN renal = test system: ACHN renal
BT-549 breast = test system: BT-549 breast
CAKI-1 renal = test system: CAKI-1 renal
CCRF-CEM leukemia = test system: CCRF-CEM leukemia
COLO 205 colon = test system: COLO 205 colon
DU-145 prostate = test system: DU-145 prostate
EKVX NSCLC = test system: EKVX NSCLC
HCC-2998 colon = test system: HCC-2998 colon
HCT-116 colon = test system: HCT-116 colon
HCT-15 colon = test system: HCT-15 colon
HL-60(TB) leukemia = test system: HL-60(TB) leukemia
HOP-62 NSCLC = test system: HOP-62 NSCLC
HOP-92 NSCLC = test system: HOP-92 NSCLC
HS 578T breast = test system: HS 578T breast
HT29 colon = test system: HT29 colon
IGROV1 ovarian = test system: IGROV1 ovarian
K-562 leukemia = test system: K-562 leukemia
KM12 colon = test system: KM12 colon
LOX IMVI melanoma = test system: LOX IMVI melanoma
M14 melanoma = test system: M14 melanoma
MALME-3M melanoma = test system: MALME-3M melanoma
MCF7 breast = test system: MCF7 breast
MDA-MB-231 breast = test system: MDA-MB-231 breast
MDA-MB-435 = test system: MDA-MB-435
MDA-MB-468 breast = test system: MDA-MB-468 breast
MOLT-4 leukemia = test system: MOLT-4 leukemia
NCI-H226 lung = test system: NCI-H226 lung
NCI-H23 lung = test system: NCI-H23 lung
NCI-H460 lung = test system: NCI-H460 lung
NCI-H522 lung = test system: NCI-H522 lung
NCI/ADR-RES ovarian = test system: NCI/ADR-RES ovarian
OVCAR-3 ovarian = test system: OVCAR-3 ovarian
OVCAR-4 ovarian = test system: OVCAR-4 ovarian
OVCAR-5 ovarian = test system: OVCAR-5 ovarian
OVCAR-8 ovarian = test system: OVCAR-8 ovarian
PC-3 prostate = test system: PC-3 prostate
RPMI-8226 leukemia = test system: RPMI-8226 leukemia
RXF 393 renal = test system: RXF 393 renal
SF-268 CNS = test system: SF-268 CNS
SF-295 CNS = test system: SF-295 CNS
SF-539 CNS = test system: SF-539 CNS
SK-MEL-2 melanoma = test system: SK-MEL-2 melanoma
SK-MEL-28 melanoma = test system: SK-MEL-28 melanoma
SK-MEL-5 melanoma = test system: SK-MEL-5 melanoma
SK-OV-3 ovarian = test system: SK-OV-3 ovarian
SN12C renal = test system: SN12C renal
SNB-19 CNS = test system: SNB-19 CNS
SNB-75 CNS = test system: SNB-75 CNS
SR leukemia = test system: SR leukemia
SW-620 colon = test system: SW-620 colon
T-47D breast = test system: T-47D breast
TK-10 renal = test system: TK-10 renal
U251 CNS = test system: U251 CNS
UACC-257 melanoma = test system: UACC-257 melanoma
UACC-62 melanoma = test system: UACC-62 melanoma
UO-31 renal = test system: UO-31 renal

For COc1cc(Nc2nc(O)c(/C=C3\C=Nc4ccccc43)s2)cc(OC)c1OC, the GI50 (786-0 renal) was 2.72 µM, the TGI (786-0 renal) was 11.9 µM and the GI50 (A498 renal) was 10.2 µM. For the same compound, the TGI (A498 renal) was 24.6 µM, the GI50 (A549 NSCLC) was 2.84 µM and the TGI (A549 NSCLC) was 16.5 µM. The GI50 (ACHN renal) was 3.2 µM, the TGI (ACHN renal) was 12 µM and the GI50 (BT-549 breast) was 0.81 µM. The TGI (BT-549 breast) was 10.7 µM, the GI50 (CAKI-1 renal) was 0.84 µM and the TGI (CAKI-1 renal) was 10.3 µM. The GI50 (CCRF-CEM leukemia) was 2.09 µM, the TGI (CCRF-CEM leukemia) was > 100 µM and the GI50 (COLO 205 colon) was 3.14 µM. It also gave a TGI (COLO 205 colon) of 16.4 µM, a GI50 (DU-145 prostate) of 4.63 µM and a TGI (DU-145 prostate) of 17.2 µM. The GI50 (EKVX NSCLC) was 8.02 µM, the TGI (EKVX NSCLC) was 22.2 µM and the GI50 (HCC-2998 colon) was 6.36 µM. For the same compound, the TGI (HCC-2998 colon) was 20.7 µM, the GI50 (HCT-116 colon) was 1.1 µM and the TGI (HCT-116 colon) was 10.2 µM. The GI50 (HCT-15 colon) was 1.79 µM, the TGI (HCT-15 colon) was 12.4 µM and the GI50 (HL-60(TB) leukemia) was 0.854 µM. It also gave a TGI (HL-60(TB) leukemia) of 11.1 µM, a GI50 (HOP-62 NSCLC) of 2.69 µM and a TGI (HOP-62 NSCLC) of 15.7 µM. For the same compound, the GI50 (HOP-92 NSCLC) was 1.98 µM, the TGI (HOP-92 NSCLC) was 6.38 µM and the GI50 (HS 578T breast) was 2.33 µM. For the same compound, the TGI (HS 578T breast) was 11.9 µM, the GI50 (HT29 colon) was 0.923 µM and the TGI (HT29 colon) was 10.1 µM. It also gave a GI50 (IGROV1 ovarian) of 4.91 µM, a TGI (IGROV1 ovarian) of 21.6 µM and a GI50 (K-562 leukemia) of 0.526 µM. For the same compound, the TGI (K-562 leukemia) was 31.1 µM, the GI50 (KM12 colon) was 0.977 µM and the TGI (KM12 colon) was 16.8 µM. The GI50 (LOX IMVI melanoma) was 2.82 µM, the TGI (LOX IMVI melanoma) was 13.9 µM and the GI50 (M14 melanoma) was 2.02 µM. It also gave a TGI (M14 melanoma) of 15.9 µM, a GI50 (MALME-3M melanoma) of 2.01 µM and a TGI (MALME-3M melanoma) of 15.2 µM. It also gave a GI50 (MCF7 breast) of 1.79 µM, a TGI (MCF7 breast) of 11.9 µM and a GI50 (MDA-MB-231 breast) of 4.77 µM. The TGI (MDA-MB-231 breast) was 18.8 µM, the GI50 (MDA-MB-435) was 0.28 µM and the TGI (MDA-MB-435) was 0.94 µM. It also gave a GI50 (MDA-MB-468 breast) of 0.657 µM, a TGI (MDA-MB-468 breast) of 6.23 µM and a GI50 (MOLT-4 leukemia) of 2.63 µM. For the same compound, the TGI (MOLT-4 leukemia) was 26 µM, the GI50 (NCI-H226 lung) was 3.18 µM and the TGI (NCI-H226 lung) was 17.4 µM. It also gave a GI50 (NCI-H23 lung) of 5.33 µM, a TGI (NCI-H23 lung) of 21.1 µM and a GI50 (NCI-H460 lung) of 2.1 µM. For the same compound, the TGI (NCI-H460 lung) was 14.3 µM, the GI50 (NCI-H522 lung) was 0.403 µM and the TGI (NCI-H522 lung) was 5.56 µM. It also gave a GI50 (NCI/ADR-RES ovarian) of 6.24 µM, a TGI (NCI/ADR-RES ovarian) of 24.2 µM and a GI50 (OVCAR-3 ovarian) of 0.517 µM. For the same compound, the TGI (OVCAR-3 ovarian) was 5.32 µM, the GI50 (OVCAR-4 ovarian) was 2.88 µM and the TGI (OVCAR-4 ovarian) was 10.6 µM. For the same compound, the GI50 (OVCAR-5 ovarian) was 4.58 µM, the TGI (OVCAR-5 ovarian) was 17.7 µM and the GI50 (OVCAR-8 ovarian) was 10.6 µM. The TGI (OVCAR-8 ovarian) was 27.2 µM, the GI50 (PC-3 prostate) was 2.59 µM and the TGI (PC-3 prostate) was 22.6 µM. The GI50 (RPMI-8226 leukemia) was 5.73 µM, the TGI (RPMI-8226 leukemia) was > 100 µM and the GI50 (RXF 393 renal) was 1 µM. For the same compound, the TGI (RXF 393 renal) was 5.8 µM, the GI50 (SF-268 CNS) was 3.56 µM and the TGI (SF-268 CNS) was 20 µM. For the same compound, the GI50 (SF-295 CNS) was 2.27 µM, the TGI (SF-295 CNS) was 13.4 µM and the GI50 (SF-539 CNS) was 2.49 µM. For the same compound, the TGI (SF-539 CNS) was 9.95 µM, the GI50 (SK-MEL-2 melanoma) was 1.45 µM and the TGI (SK-MEL-2 melanoma) was 12.2 µM. The GI50 (SK-MEL-28 melanoma) was 6.07 µM, the TGI (SK-MEL-28 melanoma) was 21 µM and the GI50 (SK-MEL-5 melanoma) was 2.46 µM. For the same compound, the TGI (SK-MEL-5 melanoma) was 14.1 µM, the GI50 (SK-OV-3 ovarian) was 2.56 µM and the TGI (SK-OV-3 ovarian) was 10.3 µM. The GI50 (SN12C renal) was 3.85 µM, the TGI (SN12C renal) was 15.1 µM and the GI50 (SNB-19 CNS) was 6.6 µM. It also gave a TGI (SNB-19 CNS) of 21.2 µM, a GI50 (SNB-75 CNS) of 1.24 µM and a TGI (SNB-75 CNS) of 3.63 µM. It also gave a GI50 (SR leukemia) of 0.394 µM, a TGI (SR leukemia) of 29.9 µM and a GI50 (SW-620 colon) of 3.1 µM. The TGI (SW-620 colon) was 21.8 µM, the GI50 (T-47D breast) was 3.58 µM and the TGI (T-47D breast) was 19.7 µM. For the same compound, the GI50 (TK-10 renal) was 8.56 µM, the TGI (TK-10 renal) was 22.8 µM and the GI50 (U251 CNS) was 3.27 µM. For the same compound, the TGI (U251 CNS) was 15.7 µM, the GI50 (UACC-257 melanoma) was 5.18 µM and the TGI (UACC-257 melanoma) was 21.1 µM. It also gave a GI50 (UACC-62 melanoma) of 4.75 µM, a TGI (UACC-62 melanoma) of 19.7 µM and a GI50 (UO-31 renal) of 3.43 µM. For the same compound, the TGI (UO-31 renal) was 13.7 µM.
